Like-named read-outs stand apart in the source and are kept apart here.
Tests used:
rat A2A AR = biological target: T1, rat A2A AR (Rattus norvegicus, UniProt P30543); assay: Radioligand binding assay at rat A2A AR (rat brain striatum) vs. [^3H]MSX-2; conditions: rat (r); for Ki: rat brain striatum, n = 3, read-out: Ki ± SEM, A2A vs. [^3H]MSX-2
T1 construct: A2A ARs of rat brain striatal membrane preparations; from tissue; host or cells: rat brain striatum membranes
Method in brief: (§1)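 Membranes of CHO cells recombinantly expressing single human AR subtypes served for human assays, A2B competed against [^3H]PSB-603. Native rat tissue was used otherwise: cortical membranes with [^3H]CCPA for A1, striatal membranes with [^3H]MSX-2 for A2A.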

recombinant human MAO-A = biological target: T2, recombinant human MAO-A (Homo sapiens, UniProt P21397); assay: Monoamine oxidase assay (Amplex Red), MAO-A; assay type: biochemical; conditions: for inhibition at 10 µM: at 10,000 nM, read-out: % inhibition at indicated concentration, Human MAO-A; for IC50: n = 3, read-out: IC50 ± SEM, Human MAO-A
T2 construct: purchased Sigma-Aldrich M7316; host or cells: baculovirus-infected insect cells
T2 sequence (P21397 1-527): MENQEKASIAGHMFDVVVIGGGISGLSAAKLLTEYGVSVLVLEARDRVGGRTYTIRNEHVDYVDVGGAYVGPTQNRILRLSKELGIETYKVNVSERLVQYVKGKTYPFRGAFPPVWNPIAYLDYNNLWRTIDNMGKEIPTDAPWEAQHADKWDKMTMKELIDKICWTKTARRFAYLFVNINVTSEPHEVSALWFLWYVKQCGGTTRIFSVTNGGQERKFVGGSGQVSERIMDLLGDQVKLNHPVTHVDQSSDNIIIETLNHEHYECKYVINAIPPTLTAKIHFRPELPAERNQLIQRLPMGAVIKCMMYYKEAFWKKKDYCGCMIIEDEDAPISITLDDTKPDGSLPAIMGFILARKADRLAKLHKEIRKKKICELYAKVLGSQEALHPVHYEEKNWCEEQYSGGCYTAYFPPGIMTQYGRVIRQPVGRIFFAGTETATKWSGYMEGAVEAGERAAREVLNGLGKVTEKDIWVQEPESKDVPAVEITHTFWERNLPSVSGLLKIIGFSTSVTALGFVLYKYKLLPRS
Protocol: The determination of MAO-A and MAO-B inhibition was performed using commercially available recombinant human MAO-A and MAO-B enzymes expressed in baculovirus-infected insects sells (Sigma-Aldrich, M7316 and M7441) applying the commercially available Amplex® Red monoamine oxidase assay kit (Invitrogen A12214). The assays were performed as previously described. The determination of rat MAO-B inhibition was performed using mitochondrial-enriched fractions from male Sprague Dawley rat livers. […]

rat A1 AR = biological target: T3, rat A1 AR (Rattus norvegicus, UniProt P25099); assay: Radioligand binding assay at rat A1 AR (rat brain cortex) vs. [^3H]CCPA; conditions: rat (r); rat brain cortex; n = 3
T3 construct: A1 ARs of rat brain cortical membrane; from tissue; host or cells: rat brain cortex membranes
T3 sequence (P25099 1-326): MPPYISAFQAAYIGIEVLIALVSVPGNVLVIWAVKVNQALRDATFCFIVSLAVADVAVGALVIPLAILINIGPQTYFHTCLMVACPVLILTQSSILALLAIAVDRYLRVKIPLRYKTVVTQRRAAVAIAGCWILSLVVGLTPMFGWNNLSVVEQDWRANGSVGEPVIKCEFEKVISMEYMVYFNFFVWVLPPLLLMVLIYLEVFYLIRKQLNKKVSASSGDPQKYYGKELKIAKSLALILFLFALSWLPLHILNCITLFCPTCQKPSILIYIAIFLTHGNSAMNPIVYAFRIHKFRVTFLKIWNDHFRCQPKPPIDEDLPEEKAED
Method in brief: as §1

human A2A AR [1] = biological target: T4, human A2A AR (Homo sapiens, UniProt P29274); assay: Radioligand binding assay at human A2A AR vs. [^3H]MSX-2
T4 construct: expressed in transfected cells; host or cells: CHO cells
T4 sequence (P29274 whole entry): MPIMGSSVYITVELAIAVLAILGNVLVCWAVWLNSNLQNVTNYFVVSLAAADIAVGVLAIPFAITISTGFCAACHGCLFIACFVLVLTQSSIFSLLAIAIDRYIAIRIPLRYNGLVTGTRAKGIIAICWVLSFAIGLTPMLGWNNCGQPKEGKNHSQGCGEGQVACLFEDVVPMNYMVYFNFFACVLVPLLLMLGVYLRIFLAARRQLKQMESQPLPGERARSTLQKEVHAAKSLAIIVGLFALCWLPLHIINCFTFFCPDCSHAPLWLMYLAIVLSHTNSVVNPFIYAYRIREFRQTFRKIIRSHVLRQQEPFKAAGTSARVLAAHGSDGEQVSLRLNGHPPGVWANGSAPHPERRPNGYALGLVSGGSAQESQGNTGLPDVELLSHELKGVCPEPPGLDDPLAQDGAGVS
Protocol: Membrane preparations and radioligand binding assays at rat A1 (rat brain cortex) and rat A2A ARs (rat brain striatum) were performed as previously described (Ozola et al., [2003]; Alnouri et al., [2015]). For assays at human A1, A2A, A2B, and A3 ARs, CHO cell membranes expressing one of the human AR subtypes were used as previously reported (Klotz et al., [1998]; Alnouri et al., [2015]; De Filippo et al., [2016]).
The synthesized tetrahydropyrazino[2,1-f ]purinediones 13–20 were evaluated in radioligand binding assays for their affinity to A1 ARs of rat brain cortical membrane and to A2A ARs of rat brain striatal membrane preparations. Selected compounds were further investigated for their affinity to human A1 and A2A ARs recombinantly expressed in Chinese hamster ovary (CHO) cells. All compounds were additionally investigated for their affinity to human A2B and A3 ARs recombinantly expressed in CHO cells to determine their AR subtype selectivity. […] It is well known that all xanthine derivatives lacking a ribose moiety, including tricyclic compounds, can only block ARs, but never act as AR agonists; therefore, additional functional studies were not required. […] Potent MAO-B inhibitors were additionally investigated for inhibition of human MAO-A to assess their selectivity. Results are presented in Tables 1–6, and data of standard ligands are included for comparison.

recombinant human MAO-B [2] = biological target: T5, recombinant human MAO-B (Homo sapiens, UniProt P27338); assay: Monoamine oxidase assay (Amplex Red), MAO-B; assay type: biochemical; conditions: for IC50: n = 3, read-out: IC50 ± SEM, Human MAO-B
T5 construct: purchased Sigma-Aldrich M7441; host or cells: baculovirus-infected insect cells
T5 sequence (P27338 1-520): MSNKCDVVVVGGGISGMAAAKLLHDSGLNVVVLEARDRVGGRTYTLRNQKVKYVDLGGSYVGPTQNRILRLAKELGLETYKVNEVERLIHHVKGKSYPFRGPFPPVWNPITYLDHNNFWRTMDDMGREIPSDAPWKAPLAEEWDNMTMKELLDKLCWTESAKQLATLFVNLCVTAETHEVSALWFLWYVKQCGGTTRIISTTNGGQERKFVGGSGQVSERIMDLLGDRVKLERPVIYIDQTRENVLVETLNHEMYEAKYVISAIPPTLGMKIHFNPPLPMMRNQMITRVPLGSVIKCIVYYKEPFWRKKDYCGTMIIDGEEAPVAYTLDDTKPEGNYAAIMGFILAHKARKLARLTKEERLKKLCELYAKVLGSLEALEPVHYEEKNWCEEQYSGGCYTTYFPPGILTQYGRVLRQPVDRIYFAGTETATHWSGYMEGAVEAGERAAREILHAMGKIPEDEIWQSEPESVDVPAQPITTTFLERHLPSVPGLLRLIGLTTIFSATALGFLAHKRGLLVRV
Method in brief: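 Inhibition was measured with an Amplex Red monoamine oxidase assay, using human MAO-A and MAO-B produced recombinantly in baculovirus-infected insect cells. For rat MAO-B, liver mitochondria-enriched fractions from male Sprague Dawley rats served as enzyme source.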

human A1 AR [3] = biological target: T6, human A1 AR (Homo sapiens, UniProt P30542); assay: Radioligand binding assay at human A1 AR vs. [^3H]CCPA; conditions: human (h); CHO cell membranes; n = 3
T6 construct: expressed in transfected cells; host or cells: CHO cells
T6 sequence (P30542 1-326): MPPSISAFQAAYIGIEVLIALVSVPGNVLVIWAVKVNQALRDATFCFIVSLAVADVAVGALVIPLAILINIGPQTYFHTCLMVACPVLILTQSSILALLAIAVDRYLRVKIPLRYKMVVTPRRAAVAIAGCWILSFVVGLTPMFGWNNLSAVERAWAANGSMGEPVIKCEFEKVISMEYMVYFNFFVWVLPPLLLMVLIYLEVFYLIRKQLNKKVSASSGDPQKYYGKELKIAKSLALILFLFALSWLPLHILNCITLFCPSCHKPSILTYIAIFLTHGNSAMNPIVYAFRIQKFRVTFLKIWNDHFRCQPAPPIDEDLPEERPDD
Method in brief: as §1

human A3 AR = biological target: T7, human A3 AR (Homo sapiens, UniProt P0DMS8); assay: Radioligand binding assay at human A3 AR vs. [^3H]PSB-11; conditions: CHO cell membranes, n = 2 (n = 3 where marked a), read-out: Ki ± SEM, A3 vs. [^3H]PSB-11
T7 construct: expressed in transfected cells; host or cells: CHO cells
T7 sequence (P0DMS8 1-318): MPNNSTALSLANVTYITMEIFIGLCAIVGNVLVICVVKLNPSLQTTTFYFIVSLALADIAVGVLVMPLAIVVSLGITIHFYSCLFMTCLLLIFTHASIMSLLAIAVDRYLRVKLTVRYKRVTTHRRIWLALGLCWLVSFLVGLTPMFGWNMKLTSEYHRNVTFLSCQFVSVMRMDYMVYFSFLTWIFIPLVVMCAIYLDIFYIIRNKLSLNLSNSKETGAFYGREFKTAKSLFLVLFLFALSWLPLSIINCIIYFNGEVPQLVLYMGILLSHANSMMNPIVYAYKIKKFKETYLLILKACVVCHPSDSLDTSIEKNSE
Method in brief: as §1

human A2B AR = biological target: T8, human A2B AR (Homo sapiens, UniProt P29275); assay: Radioligand binding assay at human A2B AR vs. [^3H]PSB-603; conditions: at 10,000 nM, read-out: % inhibition of radioligand binding at indicated concentration, A2B vs. [^3H]PSB-603
T8 construct: expressed in transfected cells; host or cells: CHO cells
T8 sequence (P29275 1-332): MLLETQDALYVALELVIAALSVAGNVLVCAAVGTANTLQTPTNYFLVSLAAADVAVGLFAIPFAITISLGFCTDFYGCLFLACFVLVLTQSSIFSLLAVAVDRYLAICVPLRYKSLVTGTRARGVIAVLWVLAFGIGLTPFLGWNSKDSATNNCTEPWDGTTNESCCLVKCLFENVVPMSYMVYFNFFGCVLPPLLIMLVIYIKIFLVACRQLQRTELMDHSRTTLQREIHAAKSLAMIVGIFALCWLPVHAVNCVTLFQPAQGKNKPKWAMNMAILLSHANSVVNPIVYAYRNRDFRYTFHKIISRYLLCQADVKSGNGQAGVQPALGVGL
Method in brief: as §1

human A1 AR [4] = biological target: T6, human A1 AR; conditions: human (h); Figure 3 and introduction; ref Drabczynska et al., 2007; Koch et al., 2013; Brunschweiger et al., 2014, 2016; read-out: A1 (Ki); cited from earlier work
recombinant human MAO-B [5] = biological target: T5, recombinant human MAO-B; conditions: human (h); Figure 3 and introduction; ref Drabczynska et al., 2007; Koch et al., 2013; Brunschweiger et al., 2014, 2016; cited from earlier work
human A2A AR [6] = biological target: T4, human A2A AR; conditions: human (h); Figure 3 and introduction; ref Drabczynska et al., 2007; Koch et al., 2013; Brunschweiger et al., 2014, 2016; cited from earlier work

T1 sequence (P30543 whole entry): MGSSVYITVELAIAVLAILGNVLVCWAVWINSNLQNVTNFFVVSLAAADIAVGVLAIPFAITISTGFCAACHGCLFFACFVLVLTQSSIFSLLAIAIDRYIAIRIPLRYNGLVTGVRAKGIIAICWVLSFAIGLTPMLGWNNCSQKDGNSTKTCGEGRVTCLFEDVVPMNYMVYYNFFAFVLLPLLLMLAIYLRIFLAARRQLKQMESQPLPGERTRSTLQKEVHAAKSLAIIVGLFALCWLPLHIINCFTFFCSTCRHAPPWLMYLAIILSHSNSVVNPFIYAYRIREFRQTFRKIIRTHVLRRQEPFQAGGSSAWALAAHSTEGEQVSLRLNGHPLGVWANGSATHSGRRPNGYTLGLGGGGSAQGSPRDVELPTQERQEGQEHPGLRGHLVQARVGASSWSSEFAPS

| Ki (rat A2A AR) [nM] | inhibition at 10 µM (recombinant human MAO-A) [%] | IC50 (recombinant human MAO-A) [nM] | Ki (rat A1 AR) [nM] | Ki (human A2A AR [1]; CHO cell membranes, n = 3, read-out: Ki ± SEM, A2A vs. [^3H]MSX-2) [nM] | IC50 (recombinant human MAO-B [2]) [nM] | Ki (human A1 AR [3]) [nM] | Ki (human A3 AR) [nM] | % inhibition of radioligand binding at indicated concentration, A2A vs. [^3H]MSX-2 (rat A2A AR; at 1,000 nM) [%] | inhibition at 10 µM (human A2B AR) [%] | % inhibition of radioligand binding at indicated concentration, A2A vs. [^3H]MSX-2 (human A2A AR [1]; at 1,000 nM) [%] | inhibition at 10 µM (recombinant human MAO-B [2]; at 10,000 nM (10 μM), read-out: % inhibition at indicated concentration, Human MAO-B) [%] | SMILES | Ki (human A1 AR [4]) [nM] | IC50 (recombinant human MAO-B [5]) [nM] | Ki (human A2A AR [6]) [nM] |
| --- | --- | --- | --- | --- | --- | --- | --- | --- | --- | --- | --- | --- | --- | --- | --- |
| 675 ± 104 | 9 | > 10000 | 152 ± 12 | 2110 | 2910 | 475 ± 47 | 12700 |  |  |  |  | CCCn1c(=O)c2c(nc3n2CCN(Cc2ccc(Cl)c(Cl)c2)C3)n(C)c1=O [Compound 18] |  |  |  |
| > 1000 | 20 | > 10000 | 53 ± 5.8 |  | ≤ 10000 | 121 ± 45 |  | 33 | 36 | 8 | > 50 | CCn1c(=O)c2c(nc3n2CCN(Cc2cccc(Cl)c2)C3)n(C)c1=O [Compound 14i, 8-(3-chlorobenzyl)-3-ethyl-1-methyl-6,7,8,9-tetrahydropyrazino[2,1-f]purine-2,4(1H,3H)-dione] |  |  |  |
|  |  |  |  |  |  |  |  |  |  |  |  | COc1ccccc1CN1CCCn2c1nc1c2c(=O)n(C)c(=O)n1C [Compound 9b] | 605 | 1800 | 417 |
|  |  |  |  |  |  |  |  |  |  |  |  | Cn1c(=O)c2c(nc3n2CCCN3Cc2ccccc2)n(C)c1=O [Compound 9a] | 249 |  | 253 |
